Results from patent US20050053555A1, “Appetite control compositions and methods of use” (Crave Busters, LLC., priority 2003, published 2005).

System: sweetness taste receptors of the tongue
Assay: blocking the sense of sweetness by topical delivery to mouth and tongue
Type: in vivo
Conditions: about 10 mg to about 80 mg glycyrrhizin delivered concurrently with gymnemic acid
Excerpt: Without being bound to any particular theory of action, it is currently believed that the appetite control compositions according to the invention deliver a relatively small dose of an active ingredient, gymnemic acid, directly to the sweetness taste receptors of the tongue, which blocks the sense of sweetness and thereby produces appetite control.
Gymnema sylvestre is commonly called Gurmar. It is well known in the art as a “sugar blocker.” Gymnema sylvestre contains the bitter principle gymnemic acid, which is well known for its ability to bind to the sweetness taste receptors on the tongue and to sugar absorption sites in the gut. Formerly, Gymnema sylvestre and extracts standardized to deliver gymnemic acid have been incorporated into traditional dosage forms to take advantage of its ability to block the absorption of sugar from the gut. […]
The appetite control compositions according to the invention include Gymnema sylvestre herb or, preferably, an extract of Gymnema sylvestre herb designed to maximize the quantity of gymnemic acid it contains. […]
In some embodiments, the appetite control compositions according to the invention include Glycyrrhiza glabra root or, preferably, an extract of Glycyrrhiza glabra root designed to maximize the quantity of glycyrrhizin it contains. […]

SMILES: CC1(C)[C@@H](O[C@H]2O[C@H](C(=O)O)[C@@H](O)[C@H](O)[C@H]2O[C@@H]2O[C@H](C(=O)O)[C@@H](O)[C@H](O)[C@H]2O)CC[C@]2(C)[C@H]3C(=O)C=C4[C@@H]5C[C@@](C)(C(=O)O)CC[C@]5(C)CC[C@@]4(C)[C@]3(C)CC[C@@H]12 [glycyrrhizin]
- effect on quantity of gymnemic acid required to block the sense of sweetness for 1 to 2 hours: effectively reduces the quantity of gymnemic acid required
